{"source": "patent US9938267B2", "about": "“Heterocyclic inhibitors of glutaminase” (Calithera Biosciences, Inc., priority 2011, dated 2018)", "key": {"[1]": {"system": "HCT116 colon carcinoma xenograft", "experiment": "HCT116 colon carcinoma xenograft efficacy study", "assay_type": "in vivo", "conditions": "female scid/bg mice, intraperitoneal, twice daily; FIG. 1", "method": "Certain compounds were assayed for in vivo efficacy in xenograft models as follows.\nFemale scid/bg mice, approximately 6 weeks of age, were implanted subcutaneously on the right flank with 5×10^6 HCT116 cells per mouse in a volume of 100 uL of sterile PBS. When tumors reached a volume of 50-100 mm^3, mice were randomized to groups of n=10 to receive either vehicle or test compound delivered twice daily by intraperitoneal injection. Tumors were measured three times per week using Vernier calipers and tumor volume calculated using the formula: Volume=(Length×Width^2/2), where length and width are the longest perpendicular sides of the tumor. Dosing continued twice daily until control tumors reached a size of 2000 mm^3. Statistical comparisons were made using a 2-way ANOVA with Bonferroni post-test."}, "[2]": {"molecular_target": "T1, recombinant form of Glutaminase 1 (GAC) (Homo sapiens, UniProt O94925)", "experiment": "Recombinant enzyme assay (GAC, GDH-coupled absorbance, no preincubation)", "assay_type": "biochemical", "conditions": "read-out: GAC Delta N2 IC50 no preinc", "method": "(§1) Enzymatic reaction was started with the addition of 50 μL of enzyme solution (50 mM Tris-HCl pH 8.0, 0.2 mM EDTA, 150 mM K2HPO4, 0.1 mg/ml BSA, 1 mM DTT, 10 ppm antifoam, 4 units/ml GDH, 4 mM adenosine diphosphate, and 4 nM GAC) and read in a Molecular Devices M5 plate reader at 20° C. The plate reader was configured to read absorbance (λ=340 nm) in kinetic mode for 15 minutes. Data was recorded as milli-absorbance units per minute and slopes were compared to a control compound and a DMSO-only control on the same plate. Compounds with slopes less than the DMSO control were considered inhibitors and plate variability was assessed using the control compound."}, "[3]": {"molecular_target": "T1, recombinant form of Glutaminase 1 (GAC)", "experiment": "Recombinant enzyme assay - time dependence (60 minutes enzyme/compound preincubation)", "assay_type": "biochemical", "conditions": "read-out: GAC Delta N2 IC50 60 min preinc", "method": "as §1, with “The enzyme/compound mix was sealed with sealing foil (USA Scientific) and allowed to incubate, with mild agitation, for 60 minutes at 20° C. Enzymatic” for “Enzymatic”, “substrate” for “enzyme”, “DTT, 20 mM L-glutamine, 2 mM NAD^+, and” for “DTT,”, “antifoam)” for “antifoam, 4 units/ml GDH, 4 mM adenosine diphosphate, and 4 nM GAC)”"}, "P493-6 (myc \"on\") cells": {"system": "P493-6 (myc \"on\") cells", "experiment": "Cell proliferation assay (72 hrs, Cell Titer Glo or Viacount FACS)", "assay_type": "cell-based", "conditions": "read-out: Cell prolif P493 72 h IC50; P493 cells, 72 h", "method": "P493-6 (myc “on”) cells were maintained in growth media (RPMI-1640, 10% FBS, 2 mM glutamine, 100 units/ml Penicillin and 100 μg/ml streptomycin) at 37° C. with 5% CO2. For compound assay, P493-6 cells were plated in 96-well V-bottom plates on the day of compound addition in 50 μl of growth media at a cell density of 200,000 cells/ml (10,000 cells/well). Compounds were serially diluted in 100% DMSO at 200-times the final concentration. Compounds were diluted 100-fold into growth media and then 50 μl of this mixture was added to cell plates making the final concentration of DMSO 0.5%. Cells were incubated with compound for 72 hrs at 37° C. with 5% CO2 and analyzed for antiproliferative effects either by Cell Titer Glo (Promega) or FACS analysis using the Viacount (Millipore) kit on the Guava instrument."}, "Caco-2 cell monolayers": {"system": "Caco-2 cell monolayers", "experiment": "Caco-2 permeability assay (bidirectional)", "assay_type": "in vitro ADME", "text": "Caco-2 cells are commonly used in a confluent monolayer on a cell culture insert filter. When cultured in this format and under specific conditions, the cells become differentiated and polarized such that their phenotype, morphologically and functionally resembles the enterocytes lining the small intestine. The cell monolayer provides a physical and biochemical barrier to the passage of small molecules, and is widely used across the pharmaceutical industry as an in vitro model of the human small intestinal mucosa to predict the absorption of orally administered drugs (Hidalgo et al., Gastroenterology, 1989; Artursson, J. Pharm. Sci., 1990). The correlation between the in vitro apparent permeability (P ? app) across Caco-2 monolayers and the in vivo absorption is well established (Artursson et al., Biochem. Biophys. Res. Comm., 1991).\nThe present assay was used to determine the bidirectional permeability of the compounds of the invention through Caco-2 cell monolayers. Caco-2 cells were grown in confluent monolayers where the media of both the apical (A) and basolateral (B) sides were at pH 7.4. Compounds were dosed at 1 μM in the presence of 200 μM Lucifer Yellow, on the apical side (A→B) or the basolateral side (B→A) for assessment, in duplicate."}}}
{"smiles": "O=C(CCN1CCOCC1)OCC(C(=O)Nc1nnc(CCCCc2nnc(NC(=O)C(COC(=O)CCN3CCOCC3)c3ccccc3)s2)s1)c1ccccc1", "note": "(centres unmarked) [Compound 188, {[5,5′-(butane-1,4-diyl)-bis(1,3,4-thiadiazole-5,2-diyl)]-bis(azanediyl)}-bis(3-oxo-2-phenylpropane-3,1-diyl)-bis(3-morpholinopropanoate)]", "values": [{"measurement": "tumor size", "setting": "[1]", "value": "reduced tumor size"}]}
{"smiles": "NCc1cccc(CC(=O)Nc2nnc(CCCCc3nnc(NC(=O)Cc4cccc(CN)c4)s3)s2)c1", "note": "[Compound 325]", "values": [{"measurement": "IC50", "setting": "[2]", "value": 660, "unit": "nM"}, {"measurement": "IC50", "setting": "[3]", "value": 170, "unit": "nM"}, {"measurement": "IC50", "setting": "P493-6 (myc \"on\") cells", "value": 30, "unit": "nM"}]}
{"smiles": "O=C(Cc1cccc(OC(F)(F)F)c1)Nc1ccc(CCCCc2nnc(NC(=O)Cc3cccc(F)c3)s2)nn1", "note": "[Compound 679]", "values": [{"measurement": "Significant Efflux", "setting": "Caco-2 cell monolayers", "value": "No"}]}
